As usually defined, the IC50 is the concentration at which inhibition is half-maximal. The EC50 is the concentration that produces a half-maximal response. Broadly, the CC50 is the concentration at which the toxic effect on the cells reaches its halfway point. Read a low CC50 as harm at low concentration. A word on the bioavailability: it is dose-corrected exposure relative to a reference, in per cent. In general, AUC(0-inf) refers to total exposure, with the tail of the curve extrapolated. Read a high AUC(0-inf) as high exposure. For orientation: Cmax means the maximum level reached in the sampled fluid or tissue.

This is an account of results in patent US11166954B2, “Dihydropyrimidine compound and preparation method and use thereof” (SICHUAN KELUN-BIOTECH BIOPHARMACEUTICAL CO., LTD., priority 2016, dated 2021).

Molecules are shown by their SMILES. Like-named read-outs stand apart in the source and are kept apart here. Where only a bound is given, the exact number is not on record here.

For series [1], the target named is T1, hERG potassium ion channel (Homo sapiens, UniProt Q12809).
T1 construct: purchased
In words: Predictor hERG Fluorescence Polarization Assay. The class given is binding. The following applies: hERG fluorescence polarization. The source says: In cardiac muscle cells, hERG (human Ether-a-go-go Related Gene) coded potassium channel mediates delayed rectifier potassium currents (IKr). IKr inhibition is the most important mechanism of QT interval prolongation caused by a drug.
Employing the Predictor™ hERG Fluorescence Polarization Assay, the effect of the compounds on a hERG potassium ion channel was detected.

The test system of series [2] is hepatitis type B virus (HBV). The series is described as follows: Inhibition of HBV DNA replication in HepG2.2.15 cells. It is filed as cell-based. On the procedure:
The inhibitory effect of the compounds of the present invention on hepatitis type B virus (HBV) was tested. Cytotoxicity and effects on nucleic acid (DNA) replication level of the virus (HBV) of the compounds of the present invention were tested at a virus-cell level.
HepG2.2.15 cells in the logarithmic growth phase were plated in a 96-well plate at a cell concentration of 40 cells per μL. The cells were incubated in a 5% CO2 incubator at 37° C. for 3 days; and the culture medium was replaced with a new one ([…]) before adding compounds. The concentration of the stock solution of each Example compound is 200 μM.

The next series relates to HepG2.2.15 cells. The series is described as follows: Cytotoxicity detection (CellTiter-Glo). It is filed as cell-based. Particulars: 4 days, highest concentration 150 μM. On the procedure: (§1) The test compounds were diluted to 30 mM with DMSO, with 30 mM as the highest concentration, the compounds were subjected to three-fold serial dilution to various concentrations. 0.2 μL of the compounds at various concentrations were added to a 384-well plate, HepG2.2.15 cells having a concentration of 2000 cells per 50 μL were added to each well, and the highest concentration of the test compounds was 150 μM. 1 μL of DMSO was added to corresponding wells for control. The plate was incubated in a 5% CO2 incubator at 37° C. for 4 days; and 50 μL of CellTiter-Glo was added to each well after 4 days. The plate was read for detection, and a half cytotoxic concentration (CC50) was calculated.

Series [3] can be described thus: Cytotoxicity detection (CellTiter-Glo). The class given is cell-based. Particulars: human, HepG2.2.15 cells, highest concentration 150 μM. On the procedure:
as §1
For orientation: In ATP-based viability assays light output follows the ATP content of the culture.

Series [4] is described as follows: In vivo pharmacokinetics (PK) in rats. The following applies: male, SD, rat; for Kp: liver/plasma, 2 mg/kg. The method, then: The test compounds were administrated to male SD rats by intravenous (iv) and by gavage (po), respectively, the doses of the iv and po administration were respectively 1 mg/kg and 2 mg/kg, the solvent system for iv administration was 5% DMSO:5% solutol:90% physiological saline, and the solvent system for po administration was 0.5% MC. Blood was collected at multiple time points after iv administration and po administration for the PK study. Plasma samples and liver tissue samples were subjected to protein precipitation, followed by LC-MS/MS analysis. The mass spectrometer was API 5500, and the liquid chromatograph is a Waters ACQUITY I CLASS system; the chromatographic column was an Agela ASB C18 column (2.1 mm×50 mm, 1.9 μm); mobile phase A was water+0.1% formic acid, and phase B was acetonitrile; the flow rate was 0.4 mL/min, and the column temperature was 40° C. The ion source was an ESI source in a positive ion mode, and the scanning manner is multiple reaction monitoring (MRM).

Where [5] appears, read: HepG2.2.15, HBV DNA replication.

T1 sequence (Q12809 whole entry): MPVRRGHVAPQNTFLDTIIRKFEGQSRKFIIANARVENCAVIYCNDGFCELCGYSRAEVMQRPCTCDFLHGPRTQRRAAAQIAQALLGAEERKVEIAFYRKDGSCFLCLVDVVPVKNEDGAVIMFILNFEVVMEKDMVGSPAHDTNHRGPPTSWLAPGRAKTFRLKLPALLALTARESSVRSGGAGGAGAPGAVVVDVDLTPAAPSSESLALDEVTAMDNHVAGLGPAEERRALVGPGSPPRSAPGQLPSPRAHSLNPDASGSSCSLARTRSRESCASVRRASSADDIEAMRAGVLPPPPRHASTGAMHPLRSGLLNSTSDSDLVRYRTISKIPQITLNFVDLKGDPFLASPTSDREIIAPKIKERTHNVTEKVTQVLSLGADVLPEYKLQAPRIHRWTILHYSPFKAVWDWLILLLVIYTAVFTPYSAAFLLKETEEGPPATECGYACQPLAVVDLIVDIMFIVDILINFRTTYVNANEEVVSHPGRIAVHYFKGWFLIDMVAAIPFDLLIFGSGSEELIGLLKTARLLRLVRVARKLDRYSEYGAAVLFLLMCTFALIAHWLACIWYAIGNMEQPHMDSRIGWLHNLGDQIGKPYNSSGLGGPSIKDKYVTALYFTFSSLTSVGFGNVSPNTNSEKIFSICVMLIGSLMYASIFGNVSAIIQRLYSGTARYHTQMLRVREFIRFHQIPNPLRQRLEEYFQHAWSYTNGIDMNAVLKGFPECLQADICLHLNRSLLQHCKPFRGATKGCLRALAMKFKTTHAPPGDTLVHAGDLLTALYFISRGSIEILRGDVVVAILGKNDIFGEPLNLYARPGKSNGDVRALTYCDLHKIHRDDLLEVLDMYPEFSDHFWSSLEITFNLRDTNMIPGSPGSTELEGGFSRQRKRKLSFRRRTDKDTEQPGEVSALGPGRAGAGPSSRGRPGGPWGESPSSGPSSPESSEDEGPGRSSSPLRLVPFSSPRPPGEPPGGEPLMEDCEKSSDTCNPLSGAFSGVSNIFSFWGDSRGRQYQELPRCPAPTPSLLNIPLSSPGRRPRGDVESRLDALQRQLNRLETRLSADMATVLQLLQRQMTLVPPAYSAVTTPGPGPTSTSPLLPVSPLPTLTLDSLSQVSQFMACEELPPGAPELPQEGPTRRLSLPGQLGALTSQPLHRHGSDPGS

On to `CCOC(=O)C1=C(CN2CCC(O)C(F)(F)C2)NC(c2nccs2)=N[C@H]1c1ccc(F)cc1Cl` (single isomer, unassigned) [Isomer A of Example 4], for which the IC50 in series [1] was greater than 10 µM. The compound further showed an EC50 in series [2] (HBV DNA replication) of 0.0351 µM. The same compound gave a CC50 in the series on HepG2.2.15 cells of 43.9 µM.

Regarding `CCOC(=O)C1=C(CN2CCC(O)C(F)(F)C2)NC(c2nccs2)=NC1c1ccc(F)cc1Cl` (stereo not shown) [10-88 of Example 1, ethyl 4-(2-chloro-4-fluorophenyl)-6-((3,3-difluoro-4-hydroxypiperidin-1-yl)methyl)-2-(thiazol-2-yl)-1,4-dihydropyrimidine-5-carboxylate], the IC50 in series [1] is greater than 10 µM. The compound further registered an EC50 in series [2] (setting [5]) of 0.0247 µM. The compound further registered a CC50 at 4 days in series [3] of 61.1 µM.

In the case of `CCOC(=O)C1=C(CN2CCC(OCC(=O)O)C(F)(F)C2)NC(c2nccs2)=NC1c1ccc(F)cc1Cl` (stereo not shown) [10-95 of Example 5, 2-((1-((6-(2-chloro-4-fluorophenyl)-5-(ethoxycarbonyl)-2-(thiazol-2-yl)-3,6-dihydropyrimidin-4-yl)methyl)-3,3-difluoropiperidin-4-yl)oxy)acetic acid], the IC50 in series [1] was greater than 10 µM. Also, in series [2] (setting [5]), the EC50 is 0.314 µM. In series [3], this compound had a CC50 at 4 days of 131 µM.

`CCOC(=O)C1=C(CN2CCO[C@H](/C=C/C(=O)O)C2)NC(c2nccs2)=N[C@H]1c1ccc(F)cc1Cl` [10-226 of Example 25, (E)-3-((R)-4-(((R)-6-(2-chloro-4-fluorophenyl)-5-(ethoxycarbonyl)-2-(thiazol-2-yl)-3,6-dihydropyrimidin-4-yl)methyl)morpholin-2-yl)acrylic Acid]: the IC50 in series [1] was greater than 10 µM. The EC50 in series [2] (setting [5]) came to 0.0092 µM. The bioavailability in series [4] (plasma, po, by gavage, 2.00 mg/kg, read-out: bioavailability (F)) was determined as 47.6%. The AUC(0-inf) in series [4] (iv, 1.00 mg/kg, plasma) was found to be 2400 ng·h/mL; in series [4] (po, 2.00 mg/kg, liver) it was 3030 ng·h/mL; in series [4] (po, 2.00 mg/kg, plasma) it was 2290 ng·h/mL. Moreover, the Cmax in series [4] (iv, 1.00 mg/kg, plasma) stood at 2890 ng/mL; in series [4] (po, 2.00 mg/kg, liver), 1690 ng/mL; in series [4] (po, 2.00 mg/kg, plasma), 2180 ng/mL. The CC50 at 4 days in series [3] is greater than 150 µM.

On to `CCOC(=O)C1=C(CN2C[C@@H](/C=C/C(=O)O)CC(F)(F)C2)NC(c2nccs2)=N[C@H]1c1ccc(F)cc1Cl` [10-230 of Example 26, (E)-3-((R)-1-(((R)-6-(2-chloro-4-fluorophenyl)-5-(ethoxycarbonyl)-2-(thiazol-2-yl)-3,6-dihydropyrimidin-4-yl)methyl)-5,5-difluoropiperidin-3-yl)acrylic Acid], for which the IC50 in series [1] is greater than 10 µM. In addition, in series [2] (setting [5]), the EC50 was 0.0112 µM. Besides, the Kp in series [4] (po, po, 2.00 mg/kg, AUCINF liver/plasma, read-out: amount of exposure in liver relative to that in plasma) was roughly 10; in series [4] (po, po, 2.00 mg/kg, Cmax liver/plasma, read-out: blood-drug concentration in liver relative to that in plasma), roughly 10. The AUC(0-inf) in series [4] (po, 2.00 mg/kg, liver) amounted to 2340 ng·h/mL; in series [4] (po, 2.00 mg/kg, plasma), 236 ng·h/mL. The Cmax came out at 1520 ng/mL in series [4] (po, 2.00 mg/kg, liver) and 179 ng/mL in series [4] (po, 2.00 mg/kg, plasma). Further, half-maximal cytotoxicity in series [3] (CC50 at 4 days) was put at 137 µM.
